Laboratory results from paper PMC11632414 (2024).

Key:
[1] = system: 23TAG (DNA, G4) TAGGGTTAGGGTTAGGGTTAGGG; test: UV-Vis titration, Benesi-Hildebrand; settings: K+ (20 mM potassium phosphate); pH 7, 25 °C; 5 μM porphyrin titrated with DNA
[2] = system: CMA (DNA, G4) TAGGGAGGGTAGGGAGGGT; test: UV-Vis titration, Benesi-Hildebrand; settings: K+ (20 mM potassium phosphate); pH 7, 25 °C; 5 μM porphyrin titrated with DNA

C[n+]1ccc(-c2c3nc(c(-c4cc[n+](C)cc4)c4ccc([nH]4)c(-c4cc[n+](C)cc4)c4nc(c(-c5cc[n+](C)cc5)c5ccc2[nH]5)C=C4)C=C3)cc1
Kb [1]: (1.5±0.4)×10^6 M^-1 | Kb [2]: (1.5±0.6)×10^6 M^-1
